Measured values: US10813920B2, “Drug for treating corneal endothelium by promoting cell proliferation or inhibiting cell damage” (THE DOSHISHA, priority 2013, dated 2020)

Assays:
Assay type in all cases: cell-based
[1] = test system: cultured monkey corneal endothelial cells; test: UV-induced cell death of cultured monkey corneal endothelial cells (phase difference microscope); details: UV 100 J/m^2; 9 hours after irradiation; 10 μM SB203580, 3 μM BIRB796, 1 μM PH-797804, 3 μM VX-702, 3 μM LY2228820, 3 μM TAK-715
Experimental: (§1) 1×10^5 cultured monkey corneal endothelial cells were seeded on a 12-well plate coated with an FNC Coating Mix and cultured for about 5 days until reaching confluence under the condition of 5% CO2 at 37° C.
Medium: Dulbecco's Modified Eagle Medium (DMEM, Gibco, 12320-032), 10% FBS, 1% Penicillin-Streptomycin (nacalai tesque, 26252-94)
(§2) Each inhibitor was then added at the concentration in the above-described Table and the cells were incubated for 16 hours under the condition of 5% CO2 at 37° C. The solvent of each reagent, Dimethyl Sulfoxide, Sterile-filtered (nacalai tesque, 13408-64) MSO, was added to the Control group and the UV group. Gibco DMEM, 1% P/S (penicillin/streptomycin) was used as the medium.
(§3) The cellular supernatant was then removed and the cells were irradiated with UV (100 J/m^2). After irradiation, cells were again added to a medium containing each inhibitor and cultured for 9 hours. The cell form and apoptosis were observed under a phase difference microscope.

[2] = test system: cynomolgus monkey corneal endothelial cells; test: BrdU ELISA, concentration series, cynomolgus monkey corneal endothelial cells (Example 8); details: concentration series per agent between 0.1 μM and 100 μM; 5000 cells/well; * p<0.01
Experimental: The medium was removed from a culture dish culturing cynomolgus monkey corneal endothelial cells ([…] phosphate buffer solution (Nacalai Tesque, 14249-95) heated to 37° C. in advance was added thereto and the cells were washed. This operation was repeated twice. After removing the phosphate buffer solution, 0.05% Trypsin-EDTA (Nacalai Tesque, 35554-64) was added and the cells were incubated for 10 minutes at 37° C. (5% CO2). The cells were then suspended in DMEM (Nacalai Tesque, 08456-94)+10% FBS (Biowest, S1820-500)+1% penicillin/streptomycin (P/S, Nacalai Tesque, 26252-94) and centrifuged for 3 minutes at 1200 rpm to collect the cells. A 96-well plate was treated with an FNC coating mix (50 ml ([…], catalog number: 0407). The monkey corneal endothelial cells (lot: 20120404-3L-P8) were seeded in the coated 96-well plate at a ratio of 5000 cells/well. The cells were cultured for 30 hours at 37° C. (5% CO2). After 30 hours, the medium was removed and changed to a serum free medium: DMEM+1% P/S to culture the cells for 18 hours. […] DMSO was added to the control. After 24 hours, a BrdU labeling reagent (Amersham Cell Proliferation Biotrak ELISA System, Version 2, GE Healthcare, catalog number: RPN250) was further added at a ratio of 1:1000 to the DMEM+10% FBS+1% P/S medium. […] DMSO was added to the control. After 24 hours, BrdU ELISA was carried out with Amersham Cell Proliferation Biotrak ELISA System, Version 2 (GE Healthcare, catalog number: RPN250). The absorbance at 450 nm was measured. *P<0.01, Dunnet's test, n=5. As in (1), the medium was removed from a culture dish culturing cynomolgus monkey corneal endothelial cells. A phosphate buffer solution heated to 37° C. in advance was added thereto and the cells were washed. This operation was repeated twice. After removing the phosphate buffer solution, 0.05% Trypsin-EDTA (Nacalai Tesque, 35554-64) was added and the cells were incubated for 10 minutes at 37° C. (5% CO2). The cells were then suspended in DMEM (Nacalai Tesque, 08456-94)+10% FBS (Biowest, S1820-500)+1% penicillin/streptomycin (Nacalai Tesque, catalog number: 26252-94) and centrifuged for 3 minutes at 1200 rpm to collect the cells. A 96-well plate was treated with an FNC coating mix (50 ml ([…], catalog number: 0407). Monkey corneal endothelial cells (lot: 20120404-3L-P8) were seeded in the coated 96-well plate at a ratio of 5000 cells/well. The cells were cultured for 30 hours at 37° C. (5% CO2). After 30 hours, the medium was removed and changed to a serum free medium: DMEM+1% P/S to culture the cells for 18 hours. After 18 hours, Semapimod HCl (MedKoo Biosciences, catalog number: 202590, lot number: SMC20120918) was added to the DMEM+10% FBS+1% P/S medium such that the final concentration dissolved with DMSO was 0.1, 0.3, 1, 3, or 10 μmol/l, and the cells were cultured for 24 hours. DMSO was added to the control. After 24 hours, a BrdU labeling reagent (Amersham Cell Proliferation Biotrak ELISA System, Version 2, GE Healthcare, catalog number: RPN250) was further added at a ratio of 1:1000 to the DMEM+10% FBS+1% P/S medium. Semapimod HCl was added such that the final concentration was 0.1, 0.3, 1, 3, or 10 μmol/l and the cells were cultured for 24 hours. DMSO was added to the control. After 24 hours, BrdU ELISA was carried out with Amersham Cell Proliferation Biotrak ELISA System, Version 2 (GE Healthcare, catalog number: RPN250). The absorbance at 450 nm was measured. […]

[3] = test system: cultured monkey corneal endothelial cells; test: UV-induced apoptosis of cultured monkey corneal endothelial cells, Annexin V and DAPI staining; details: UV 100 J/m^2, after 9 hours of culture
Experimental: as §1, §2, §3
The cells, after 9 hours of culture, were stained for 20 minutes at 37° C. by using MEBCYTO-Apoptosis Kit (Annexin V-FITC Kit) (manufacturer: MBL, Code: 4700). The cells were then immobilized for 10 minutes with 95% acetic acid ethanol. After immobilization, the cells were stained for 30 minutes with DAPI Solution (manufacturer: DOJINDO, Code: GA098) and observed under a confocal microscope.

Row | SMILES | Cellular disorders (cell death) induced by UV [1] | BrdU uptake as a percentage with respect to the control (proliferation) [2] | Apoptosis induced by UV (annexin V staining) [3]
1 | Cc1ccc(-n2nc(C(C)(C)C)cc2NC(=O)Nc2ccc(OCCN3CCOCC3)c3ccccc23)cc1 [BIRB796, N-[3-tert-butyl-1-(4-methylphenyl)pyrazole-5-yl]-N′-[4-(2-morpholinoethoxy)-1-naphthyl]urea] | suppressed | promotes proliferation | suppressed
2 | CC(C)(C)Cn1c(N)nc2ccc(-c3nc(C(C)(C)C)[nH]c3-c3ccc(F)cc3)nc21 [LY2228820, 5-(2-(tert-butyl)-5-(4-fluorophenyl)-1H-imidazole-4-yl)-3-neopentyl-3H-imidazo[4,5-b]pyridine-2-amine] | suppressed | promotes proliferation | suppressed
3 | CNC(=O)c1ccc(C)c(-n2c(C)cc(OCc3ccc(F)cc3F)c(Br)c2=O)c1 [PH-797804, 3-(3-bromo-4-((2,4-difluorobenzyl)oxy)-6-methyl-2-oxopyridine-1(2H)-yl)-N,4-dimethylbenzamide] | suppressed | promotes proliferation | suppressed
4 | C[S+]([O-])c1ccc(-c2nc(-c3ccncc3)c(-c3ccc(F)cc3)[nH]2)cc1 (stereo not drawn) [SB203580, 4-(4-fluorophenyl)-2-(4-methylsulfinylphenyl)-5-(4-pyridyl)-1H-imidazole] | suppressed | promotes proliferation | suppressed
5 | CCc1nc(-c2cccc(C)c2)c(-c2ccnc(NC(=O)c3ccccc3)c2)s1 [TAK-715, 2-benzamide-4-[2-ethyl-4-(3-methylphenyl)thiazole-5-yl]pyridine] | suppressed | promotes proliferation | suppressed
